Assay results taken from publication PMC3056768, “Conjugation to the Cell-Penetrating Peptide TAT Potentiates the Photodynamic Effect of Carboxytetramethylrhodamine” (PLoS ONE, 2011).
“Also recorded” adds a separate entry of the source.

Legend:
COLO 316 cells = experiment: Photocytotoxicity of endocytosed peptide; assay type: cell-based, human; settings: COLO 316, 3 µM for 1 h, washed, 560 nm
Description: (§1) HeLa (human cervical adenocarcinoma), COS-7 (SV40 transformed African green monkey kidney fibroblast-like cell line) were obtained from ATCC. COLO 316 (human ovarian carcinoma) were obtained from Robert Burghardt (Department of Veterinary Integrative Biosciences, Texas A&M University). Cells were cultured in DMEM supplemented with 10% fetal bovine serum (FBS) and maintained at 37°C in a humidified environment with 5% CO2. Cells were plated in 8-well dishes so that the cells were 70% confluent after 24 h, washed 3 times with L-15 media, incubated with 3 to 10 µM peptides at 37°C for 1 h, washed 3 times with L-15, and imaged. Alternatively, cells were incubated in L-15 at 4°C to inhibit the endocytic uptake of peptides. In this case, cells were imaged with the peptide still present in solution and the low temperature was maintained for the entire duration of imaging. For photosensitization, cells were exposed to light (λex = 560±20 nm) for the indicated time points. Plasma membrane disruption was detected by addition of the cell-impermeable DNA stain SYTOX Blue (5 µM) during or after photosensitization.
Figure 2 The photolytic and photocytotoxic effects of TMR-TAT occur rapidly and in all irradiated cells. […] The cells were washed with fresh media and endocytosis of TMR-TAT was confirmed by fluorescence microscopy. […]

HeLa cells [1] = experiment: Photo-induced activity as a function of time in the endocytic pathway (endocytic degradation); assay type: cell-based, human; settings: 3 µM 1 h, washed, read-out of endocytic degradation
Description: One would expect that TMR-TAT would accumulate within late endosomes and lysosomes over time and that the TAT moiety might be degraded by proteases present in these organelles. If TAT is required for the lytic activity of TMR-TAT, degradation of the peptide should therefore abolish the activity of the compound. On the other hand, riTAT should be resistant to proteolysis and its lytic activity should not be dependent on the incubation time. HeLa cells were treated with TMR-TAT or TMR-riTAT for 1 hour to allow for endocytosis. The cells were then washed and incubated for an additional 1, 4, or 8 hours in L-15 media to allow for the accumulation of the endocytosed peptides into late endosomes and lysosomes. The cells were then observed under the microscope and treated with light as described in the previous paragraph.
Figure 3 Degradation of TMR-TAT in endocytic organelles abolishes photo-induced endosomal release and photocytotoxicity. HeLa cells were incubated with TMR-TAT or TMR-riTAT (3 µM) for 1 h, washed, and incubated at 37°C for an additional 1, 4 or 8 hours. […] The histogram represents the average percentage of cells stained by SYTOX® Blue after peptide and light treatment (the number of cells examined is at least 3000) and the error bars represent the standard deviation (experiments were reproduced at least 3 times).

COS-7 cells = experiment: Photosensitization of endocytosed peptide; assay type: cell-based, African green monkey; settings: COS-7, 3 µM for 1 h, washed, 560 nm
Description: as §1, with “In this case, cells were imaged with the peptide still present in solution and the low temperature was maintained for the entire duration of imaging. For photosensitization, cells were exposed to light (λex = 560±20 nm) for the indicated time points.” left out
TMR-TAT induces cell-death upon light irradiation in HeLa or COS-7 cells. […] Cells were observed using a 10× objective using bright field and fluorescence imaging (CFP filter to detect SYTOX® Blue). […] Cells were observed using a 100× objective using bright field and fluorescence imaging (RFP filter to detect TMR-TAT, pseudocolored red, and CFP filter to detect SYTOX® Blue, pseudo colored blue). […]

HeLa cells [2] = experiment: Endocytic uptake (fluorescence of endocytic organelles); assay type: cell-based, human; settings: 1 h at 37°C, washed, fluorescence imaging (TMR-TAT 3 µM; TMR-K9 higher concentration)
Description: as §1
Supplementary file pone.0017732.s003.tif: Figure S3 Comparison of the fluorescence intensity of endosomes containing TMR-TAT (incubation at 3 µM) or TMR-K9 (incubation at 10 µM) in the images presented in Figure 1. Imaging was performed in both cases under identical conditions. The fluorescence intensities of all endocytic organelles was measured the Slidebook software. […] (TIF) Click here for additional data file.

HeLa cells [3] = experiment: Photocytotoxicity of endocytosed peptide after light irradiation (SYTOX Blue staining, membrane blebbing); assay type: cell-based

Compound: CN(C)c1ccc2c(c1)Oc1cc(N(C)C)ccc1C21OC(=O)c2cc(C(=O)NCC(=O)N[C@@H](CCCNC(=N)N)C(=O)N[C@@H](CCCCN)C(=O)N[C@@H](CCCCN)C(=O)N[C@@H](CCCNC(=N)N)C(=O)N[C@@H](CCCNC(=N)N)C(=O)N[C@@H](CCC(N)=O)C(=O)N[C@@H](CCCNC(=N)N)C(=O)N[C@@H](CCCNC(=N)N)C(=O)N[C@@H](CCCNC(=N)N)C(=O)NCC(N)=O)ccc21 [TMR-TAT]
- photo-induced activities (morphological changes, SYTOX Blue staining) (COLO 316 cells): only observable in the irradiated area; also recorded: could be reproduced
- photo-induced endosomal release and cell-death after additional incubation (HeLa cells [1]; additional 1 hour at 37°C in L-15 before irradiation): observed
- photo-induced endosomal release and cell-death after additional incubation (HeLa cells [1]; additional 4 h at 37°C in L-15 before irradiation): reduced
- photo-induced endosomal release and cell-death after additional incubation (HeLa cells [1]; additional 8 h at 37°C in L-15 before irradiation): completely abolished
- photo-induced activities (endosomal release, blebbing, SYTOX Blue staining) (COS-7 cells): could be reproduced; also recorded: membrane blebs are formed on the cell surface, and the nuclei of cells are stained by SYTOX® Blue
- endocytic uptake by cells (HeLa cells [2]): punctate intracellular distribution
- cell destruction after irradiation at 430 nm (HeLa cells [3]; HeLa incubated with TMR-TAT, 430 nm (not absorbed by TMR), radiant exposure approx. 40 J/cm^2): not destroyed
- cell death on exposure to light of wavelengths not absorbed by TMR (HeLa cells [3]; HeLa, e.g. 436 or 470 nm): no cell death
